Test results from PMC7071059, “Targeting Receptor Tyrosine Kinase VEGFR-2 in Hepatocellular Cancer: Rational Design, Synthesis and Biological Evaluation of 1,2-Disubstituted Benzimidazoles” (Molecules, 2020).

What was measured:
HepG2 cell line = experiment: In vitro cytotoxic activity, Sulfo-Rhodamine-B (SRB) assay; assay type: cell-based, human; details: Homo sapiens, HepG2, 48 h, SRB assay, 48 h; mean of three independent experiments; read-out: IC50 (μM) on HepG2 Cell Line
SR = experiment: NCI 60 one dose (10 μM) anticancer assay; assay type: cell-based; details: Homo sapiens, 10 µM one dose, Leukemia, read-out: Growth Inhibition % SR
Protocol: (§1) Some of the synthesized compounds were selected by the NCI, Bethesda, MD, USA for evaluation of their anticancer activity. An in vitro one dose (10 μM) anticancer assay was conducted on a full NCI 60-cell line panel derived from 9 different cancer types. Table 2 presents the percent of growth inhibition of some cell lines. […] K-562 and MOLT-4 from leukemia, NCI-H522 from non-small cell lung cancer, HCT-116 from colon cancer, SK-MEL-5 and UACC-62 from melanoma, UO-31 from renal cancer, PC-3 from prostate cancer and HS 578T and T-47D from breast cancer are the most sensitive cell lines to the tested compounds. No growth inhibition was observed from the selected compounds against COLO205, HCC-2998, MALME-3M, SK-MEL-28, DU-145 and BT-549 cell lines. […] Against UO-31 from renal cancer and PC-3 from prostate cancer, it inhibited the growth of 44% and 58% of the cancer cells, respectively.

HS 578T = experiment: NCI 60 one dose (10 μM) anticancer assay; assay type: cell-based; details: Homo sapiens, 10 µM one dose, Breast Cancer, read-out: Growth Inhibition % HS 578T
Protocol: as §1

CAK1-1 = experiment: NCI 60 one dose (10 μM) anticancer assay; assay type: cell-based; details: 10 µM one dose; Renal Cancer; read-out: Growth Inhibition % CAK1-1
Protocol: as §1

BT-549 = experiment: NCI 60 one dose (10 μM) anticancer assay; assay type: cell-based; details: Homo sapiens, 10 µM one dose, Breast Cancer, read-out: Growth Inhibition % BT-549
Protocol: as §1

786-0 = experiment: NCI 60 one dose (10 μM) anticancer assay; assay type: cell-based; details: Homo sapiens, 10 µM one dose, Renal Cancer, read-out: Growth Inhibition % 786-0
Protocol: as §1

MDA-MB-231/ATTC = experiment: NCI 60 one dose (10 μM) anticancer assay; assay type: cell-based; details: Homo sapiens, 10 µM one dose, Breast Cancer, read-out: Growth Inhibition % MDA-MB-231/ATTC
Protocol: as §1

HCT-15 = experiment: NCI 60 one dose (10 μM) anticancer assay; assay type: cell-based; details: Homo sapiens, 10 µM one dose, Colon Cancer, read-out: Growth Inhibition % HCT-15
Protocol: as §1

HOP-62 = experiment: NCI 60 one dose (10 μM) anticancer assay; assay type: cell-based; details: Homo sapiens, 10 µM one dose, Non-small cell lung Cancer, read-out: Growth Inhibition % HOP-62
Protocol: as §1

MDA-MB-468 = experiment: NCI 60 one dose (10 μM) anticancer assay; assay type: cell-based; details: Homo sapiens, 10 µM one dose, Breast Cancer, read-out: Growth Inhibition % MDA-MB-468
Protocol: as §1

A549/ATTC = experiment: NCI 60 one dose (10 μM) anticancer assay; assay type: cell-based; details: Homo sapiens, 10 µM one dose, Non-small cell lung Cancer, read-out: Growth Inhibition % A549/ATTC
Protocol: as §1

NCI-H322M = experiment: NCI 60 one dose (10 μM) anticancer assay; assay type: cell-based; details: Homo sapiens, 10 µM one dose, Non-small cell lung Cancer, read-out: Growth Inhibition % NCI-H322M
Protocol: as §1

OVCAR-4 = experiment: NCI 60 one dose (10 μM) anticancer assay; assay type: cell-based; details: Homo sapiens, 10 µM one dose, Ovarian Cancer, read-out: Growth Inhibition % OVCAR-4
Protocol: as §1

UO-31 = experiment: NCI 60 one dose (10 μM) anticancer assay; assay type: cell-based; details: Homo sapiens, 10 µM one dose, Renal Cancer, read-out: Growth Inhibition % UO-31
Protocol: as §1

EKVX = experiment: NCI 60 one dose (10 μM) anticancer assay; assay type: cell-based; details: Homo sapiens, 10 µM one dose, Non-small cell lung Cancer, read-out: Growth Inhibition % EKVX
Protocol: as §1

OVCAR-5 = experiment: NCI 60 one dose (10 μM) anticancer assay; assay type: cell-based; details: Homo sapiens, 10 µM one dose, Ovarian Cancer, read-out: Growth Inhibition % OVCAR-5
Protocol: as §1

NCI-H460 = experiment: NCI 60 one dose (10 μM) anticancer assay; assay type: cell-based; details: Homo sapiens, 10 µM one dose, Non-small cell lung Cancer, read-out: Growth Inhibition % NCI-H460
Protocol: as §1

SF-268 = experiment: NCI 60 one dose (10 μM) anticancer assay; assay type: cell-based; details: Homo sapiens, 10 µM one dose, CNS Cancer, read-out: Growth Inhibition % SF-268
Protocol: as §1

NCI-H522 = experiment: NCI 60 one dose (10 μM) anticancer assay; assay type: cell-based; details: Homo sapiens, 10 µM one dose, Non-small cell lung Cancer, read-out: Growth Inhibition % NCI-H522
Protocol: as §1

NCI-H226 = experiment: NCI 60 one dose (10 μM) anticancer assay; assay type: cell-based; details: Homo sapiens, 10 µM one dose, Non-small cell lung Cancer, read-out: Growth Inhibition % NCI-H226
Protocol: as §1

KM12 = experiment: NCI 60 one dose (10 μM) anticancer assay; assay type: cell-based; details: Homo sapiens, 10 µM one dose, Colon Cancer, read-out: Growth Inhibition % KM12
Protocol: as §1

HCT-116 = experiment: NCI 60 one dose (10 μM) anticancer assay; assay type: cell-based; details: Homo sapiens, 10 µM one dose, Colon Cancer, read-out: Growth Inhibition % HCT-116
Protocol: as §1

SW-620 = experiment: NCI 60 one dose (10 μM) anticancer assay; assay type: cell-based; details: Homo sapiens, 10 µM one dose, Colon Cancer, read-out: Growth Inhibition % SW-620
Protocol: as §1

LOX IMVI = experiment: NCI 60 one dose (10 μM) anticancer assay; assay type: cell-based; details: Homo sapiens, 10 µM one dose, Melanoma, read-out: Growth Inhibition % LOX IMVI
Protocol: as §1

MCF7 = experiment: NCI 60 one dose (10 μM) anticancer assay; assay type: cell-based; details: Homo sapiens, 10 µM one dose, Breast Cancer, read-out: Growth Inhibition % MCF7
Protocol: as §1

SK-MEL-5 = experiment: NCI 60 one dose (10 μM) anticancer assay; assay type: cell-based; details: Homo sapiens, 10 µM one dose, Melanoma, read-out: Growth Inhibition % SK-MEL-5
Protocol: as §1

NCI-H23 = experiment: NCI 60 one dose (10 μM) anticancer assay; assay type: cell-based; details: Homo sapiens, 10 µM one dose, Non-small cell lung Cancer, read-out: Growth Inhibition % NCI-H23
Protocol: as §1

NCI/ADR-RES = experiment: NCI 60 one dose (10 μM) anticancer assay; assay type: cell-based; details: Homo sapiens, 10 µM one dose, Ovarian Cancer, read-out: Growth Inhibition % NCI/ADR-RES
Protocol: as §1

A498 = experiment: NCI 60 one dose (10 μM) anticancer assay; assay type: cell-based; details: Homo sapiens, 10 µM one dose, Renal Cancer, read-out: Growth Inhibition % A498
Protocol: as §1

`Cc1ccc(-c2nc3ccccc3n2CC(=O)N/N=C/c2ccc(OCc3ccccc3)cc2)o1` [Compound 17d, (E)-N′-(4-(Benzyloxy)benzylidene)-2-(2-(5-methylfuran-2-yl)-1H-benzo[d]imidazol-1-yl)acetohydrazide] showed an IC50 (HepG2 cell line) of 15.6 µM, an inhibition at 10 µM (SR) of 16% and an inhibition at 10 µM (HS 578T) of 32%. The inhibition at 10 µM (CAK1-1) was 21%, the inhibition at 10 µM (BT-549) was < 10% and the inhibition at 10 µM (786-0) was < 10%. The inhibition at 10 µM (MDA-MB-231/ATTC) was 18%, the inhibition at 10 µM (HCT-15) was 25% and the inhibition at 10 µM (HOP-62) was 17%. For the same molecule, the inhibition at 10 µM (MDA-MB-468) was < 10%, the inhibition at 10 µM (A549/ATTC) was 23% and the inhibition at 10 µM (NCI-H322M) was 20%. For the same molecule, the inhibition at 10 µM (OVCAR-4) was < 10%, the inhibition at 10 µM (UO-31) was 30% and the inhibition at 10 µM (EKVX) was 21%. The inhibition at 10 µM (OVCAR-5) was < 10%, the inhibition at 10 µM (NCI-H460) was < 10% and the inhibition at 10 µM (SF-268) was 23%. For the same molecule, the inhibition at 10 µM (NCI-H522) was 27%, the inhibition at 10 µM (NCI-H226) was < 10% and the inhibition at 10 µM (KM12) was < 10%. For the same molecule, the inhibition at 10 µM (HCT-116) was < 10%, the inhibition at 10 µM (SW-620) was < 10% and the inhibition at 10 µM (LOX IMVI) was 17%. The inhibition at 10 µM (MCF7) was 19%, the inhibition at 10 µM (SK-MEL-5) was 15% and the inhibition at 10 µM (NCI-H23) was < 10%. The inhibition at 10 µM (NCI/ADR-RES) was < 10%, the inhibition at 10 µM (A498) was 17% and the melting point was 201 to 203 °C.

In the case of `COc1cc(/C=N/NC(=O)Cn2c(C(C)C)nc3ccccc32)ccc1OCc1ccccc1` [Compound 17e, (E)-N′-(4-(Benzyloxy)-3-methoxybenzylidene)-2-(2-isopropyl-1H-benzo[d]imidazol-1-yl)acetohydrazide], the IC50 (HepG2 cell line) is reported as 24.1 µM, the inhibition at 10 µM (SR) is reported as < 10% and the inhibition at 10 µM (HS 578T) is reported as < 10%. The inhibition at 10 µM (CAK1-1) was < 10%, the inhibition at 10 µM (BT-549) was < 10% and the inhibition at 10 µM (786-0) was < 10%. The inhibition at 10 µM (MDA-MB-231/ATTC) was < 10%, the inhibition at 10 µM (HCT-15) was < 10% and the inhibition at 10 µM (HOP-62) was < 10%. The inhibition at 10 µM (MDA-MB-468) was < 10%, the inhibition at 10 µM (A549/ATTC) was < 10% and the inhibition at 10 µM (NCI-H322M) was < 10%. The inhibition at 10 µM (OVCAR-4) was < 10%, the inhibition at 10 µM (UO-31) was 20% and the inhibition at 10 µM (EKVX) was < 10%. For the same molecule, the inhibition at 10 µM (OVCAR-5) was < 10%, the inhibition at 10 µM (NCI-H460) was < 10% and the inhibition at 10 µM (SF-268) was < 10%. For the same molecule, the inhibition at 10 µM (NCI-H522) was 32%, the inhibition at 10 µM (NCI-H226) was < 10% and the inhibition at 10 µM (KM12) was < 10%. For the same molecule, the inhibition at 10 µM (HCT-116) was < 10%, the inhibition at 10 µM (SW-620) was < 10% and the inhibition at 10 µM (LOX IMVI) was < 10%. The inhibition at 10 µM (MCF7) was < 10%, the inhibition at 10 µM (SK-MEL-5) was 17% and the inhibition at 10 µM (NCI-H23) was < 10%. The inhibition at 10 µM (NCI/ADR-RES) was < 10%, the inhibition at 10 µM (A498) was 22% and the melting point was 180 to 182 °C.

`COc1cc(/C=N/NC(=O)Cn2c(-c3ccc(C)o3)nc3ccccc32)ccc1OCc1ccccc1` [Compound 17f, (E)-N′-(4-(Benzyloxy)-3-methoxybenzylidene)-2-(2-(5-methylfuran-2-yl)-1H-benzo[d]imidazol-1-yl)acetohydrazide] gave an IC50 (HepG2 cell line) of 42.5 µM, an inhibition at 10 µM (SR) of 25% and an inhibition at 10 µM (HS 578T) of 30%. The inhibition at 10 µM (CAK1-1) was 17%, the inhibition at 10 µM (BT-549) was < 10% and the inhibition at 10 µM (786-0) was < 10%. The inhibition at 10 µM (MDA-MB-231/ATTC) was 21%, the inhibition at 10 µM (HCT-15) was 26% and the inhibition at 10 µM (HOP-62) was < 10%. The inhibition at 10 µM (MDA-MB-468) was 23%, the inhibition at 10 µM (A549/ATTC) was 27% and the inhibition at 10 µM (NCI-H322M) was < 10%. For the same molecule, the inhibition at 10 µM (OVCAR-4) was < 10%, the inhibition at 10 µM (UO-31) was 38% and the inhibition at 10 µM (EKVX) was 25%. The inhibition at 10 µM (OVCAR-5) was < 10%, the inhibition at 10 µM (NCI-H460) was < 10% and the inhibition at 10 µM (SF-268) was 24%. It also gave an inhibition at 10 µM (NCI-H522) of 26%, an inhibition at 10 µM (NCI-H226) of 16% and an inhibition at 10 µM (KM12) of 15%. The inhibition at 10 µM (HCT-116) was 28%, the inhibition at 10 µM (SW-620) was < 10% and the inhibition at 10 µM (LOX IMVI) was < 10%. For the same molecule, the inhibition at 10 µM (MCF7) was 24%, the inhibition at 10 µM (SK-MEL-5) was 23% and the inhibition at 10 µM (NCI-H23) was < 10%. The inhibition at 10 µM (NCI/ADR-RES) was < 10%, the inhibition at 10 µM (A498) was 21% and the melting point was 139 to 141 °C.
